Data: PubChem BioAssay (NCI)
Several values for one entry are separate records, joined by “and”; a condition that tells them apart may be missing. Equal values may be shown once.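 Cultured in 96-well plates, cells were exposed to test compound for 48 hours across five concentrations. GI50 is the concentration that inhibits growth by half. Definition used: TGI = concentration required for complete inhibition of growth.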

Experiments:
Assay in all cases: NCI anticancer screen, dose series, 48 h
RXF 393 renal = test system: RXF 393 renal
SK-OV-3 ovarian = test system: SK-OV-3 ovarian
HT29 colon = test system: HT29 colon
DU-145 prostate = test system: DU-145 prostate
NCI-H522 lung = test system: NCI-H522 lung
EKVX NSCLC = test system: EKVX NSCLC
MDA-MB-231 breast = test system: MDA-MB-231 breast
U251 CNS = test system: U251 CNS
HOP-92 NSCLC = test system: HOP-92 NSCLC
K-562 leukemia = test system: K-562 leukemia
UO-31 renal = test system: UO-31 renal
NCI/ADR-RES ovarian = test system: NCI/ADR-RES ovarian
SF-295 CNS = test system: SF-295 CNS
786-0 renal = test system: 786-0 renal
HCC-2998 colon = test system: HCC-2998 colon
TK-10 renal = test system: TK-10 renal
A498 renal = test system: A498 renal
SF-539 CNS = test system: SF-539 CNS
SK-MEL-2 melanoma = test system: SK-MEL-2 melanoma
SK-MEL-5 melanoma = test system: SK-MEL-5 melanoma
HL-60(TB) leukemia = test system: HL-60(TB) leukemia
OVCAR-3 ovarian = test system: OVCAR-3 ovarian
OVCAR-8 ovarian = test system: OVCAR-8 ovarian
UACC-257 melanoma = test system: UACC-257 melanoma
NCI-H226 lung = test system: NCI-H226 lung
LOX IMVI melanoma = test system: LOX IMVI melanoma
MALME-3M melanoma = test system: MALME-3M melanoma
HCT-116 colon = test system: HCT-116 colon
HS 578T breast = test system: HS 578T breast
HCT-15 colon = test system: HCT-15 colon
OVCAR-5 ovarian = test system: OVCAR-5 ovarian
NCI-H23 lung = test system: NCI-H23 lung
SNB-19 CNS = test system: SNB-19 CNS
OVCAR-4 ovarian = test system: OVCAR-4 ovarian
SR leukemia = test system: SR leukemia
CCRF-CEM leukemia = test system: CCRF-CEM leukemia
UACC-62 melanoma = test system: UACC-62 melanoma
SF-268 CNS = test system: SF-268 CNS
SW-620 colon = test system: SW-620 colon
T-47D breast = test system: T-47D breast
SK-MEL-28 melanoma = test system: SK-MEL-28 melanoma
SNB-75 CNS = test system: SNB-75 CNS
PC-3 prostate = test system: PC-3 prostate
ACHN renal = test system: ACHN renal
A549 NSCLC = test system: A549 NSCLC
MDA-MB-435 = test system: MDA-MB-435
COLO 205 colon = test system: COLO 205 colon
NCI-H460 lung = test system: NCI-H460 lung
MCF7 breast = test system: MCF7 breast
HOP-62 NSCLC = test system: HOP-62 NSCLC
CAKI-1 renal = test system: CAKI-1 renal
IGROV1 ovarian = test system: IGROV1 ovarian
KM12 colon = test system: KM12 colon
RPMI-8226 leukemia = test system: RPMI-8226 leukemia
MOLT-4 leukemia = test system: MOLT-4 leukemia
BT-549 breast = test system: BT-549 breast
SN12C renal = test system: SN12C renal
M14 melanoma = test system: M14 melanoma

## C[C@H](NC(=O)c1c(N)nn2cccnc12)c1cc2cccc(C#Cc3cnn(C)c3)c2c(=O)n1-c1ccccc1
RXF 393 renal
  GI50: 2.02 µM and 1.58 µM
  TGI: > 10 µM and 9.57 µM
SK-OV-3 ovarian
  GI50: 2.89 µM and 2.13 µM
  TGI: > 10 µM and 15.5 µM
HT29 colon
  GI50: 2.31 µM and 4 µM
  TGI: > 10 µM and 43.3 µM
DU-145 prostate
  GI50: 8.71 µM and 7.69 µM
  TGI: > 100 µM
NCI-H522 lung
  GI50: 5.27 µM and 10.5 µM
  TGI: > 10 µM and 54.8 µM
EKVX NSCLC
  GI50: 9.84 µM and 4.67 µM
  TGI: > 100 µM
MDA-MB-231 breast
  GI50: 5.98 µM and 12.3 µM
  TGI: > 10 µM and 54.1 µM
U251 CNS
  GI50: 7.5 µM and 8.22 µM
  TGI: > 10 µM and 48.5 µM
HOP-92 NSCLC
  GI50: 0.524 µM and 1.41 µM
  TGI: 7.35 µM and 20.4 µM
K-562 leukemia
  GI50: > 10 µM and 10.4 µM
  TGI: > 100 µM
UO-31 renal
  GI50: 0.666 µM and 0.981 µM
  TGI: > 10 µM and 13.8 µM
NCI/ADR-RES ovarian
  GI50: 6.28 µM and 4.55 µM
  TGI: > 10 µM and 56 µM
SF-295 CNS
  GI50: 2.52 µM and 2.47 µM
  TGI: > 10 µM and 15.6 µM
786-0 renal
  GI50: 3.97 µM and 3.56 µM
  TGI: > 10 µM and 16.9 µM
HCC-2998 colon
  GI50: > 10 µM and 4.94 µM
  TGI: > 10 µM and 19.9 µM
TK-10 renal
  GI50: 2.07 µM and 1.38 µM
  TGI: > 10 µM and 12.1 µM
A498 renal
  GI50: 1.17 µM and 0.241 µM
  TGI: 8.24 µM and 1.79 µM
SF-539 CNS
  GI50: 3.33 µM and 3.36 µM
  TGI: > 10 µM and 16.4 µM
SK-MEL-2 melanoma
  GI50: > 10 µM and 6.61 µM
  TGI: > 10 µM and 41.1 µM
SK-MEL-5 melanoma
  GI50: 4.54 µM and 12.3 µM
  TGI: > 10 µM and 29.1 µM
HL-60(TB) leukemia
  GI50: 0.774 µM and 0.813 µM
  TGI: > 10 µM and 9.86 µM
OVCAR-3 ovarian
  GI50: 4.27 µM and 4.6 µM
  TGI: > 10 µM and 27.1 µM
OVCAR-8 ovarian
  GI50: > 10 µM and 12.6 µM
  TGI: > 100 µM
UACC-257 melanoma
  GI50: > 10 µM and 9.9 µM
  TGI: > 10 µM and 39.2 µM
NCI-H226 lung
  GI50: > 10 µM and 11.8 µM
  TGI: > 10 µM and 32.8 µM
LOX IMVI melanoma
  GI50: 3.44 µM
  TGI: > 10 µM and 40 µM
MALME-3M melanoma
  TGI: > 10 µM and 20 µM
HCT-116 colon
  GI50: 2.61 µM and 6.65 µM
  TGI: > 10 µM and 33.9 µM
HS 578T breast
  GI50: 1.83 µM and 1.26 µM
  TGI: > 10 µM and 46.3 µM
HCT-15 colon
  GI50: 2.69 µM and 4.68 µM
  TGI: > 10 µM and 26.4 µM
OVCAR-5 ovarian
  GI50: 8.65 µM and 6.17 µM
  TGI: > 10 µM and 28.7 µM
NCI-H23 lung
  GI50: 4.99 µM and 11 µM
  TGI: > 10 µM and 24.7 µM
SNB-19 CNS
  GI50: 6.27 µM and 10.4 µM
  TGI: > 100 µM
OVCAR-4 ovarian
  GI50: 8.72 µM and 13.3 µM
  TGI: > 10 µM and 68.4 µM
SR leukemia
  GI50: 3.59 µM and 2.4 µM
  TGI: > 100 µM
CCRF-CEM leukemia
  GI50: 0.588 µM and 0.357 µM
  TGI: > 100 µM
UACC-62 melanoma
  GI50: 0.682 µM and 1.38 µM
  TGI: > 10 µM and 23.2 µM
SF-268 CNS
  GI50: > 10 µM and 10.1 µM
  TGI: > 10 µM and 72.2 µM
SW-620 colon
  GI50: 3.14 µM and 11.9 µM
  TGI: > 10 µM and 61 µM
T-47D breast
  GI50: 0.211 µM and 0.224 µM
  TGI: 1.91 µM and 3.88 µM
SK-MEL-28 melanoma
  GI50: 3.08 µM and 3.9 µM
  TGI: > 10 µM and 38.6 µM
SNB-75 CNS
  GI50: 0.679 µM and 0.531 µM
  TGI: > 10 µM and 10.5 µM
PC-3 prostate
  GI50: 1.6 µM and 1.98 µM
  TGI: > 100 µM
ACHN renal
  GI50: 3.39 µM and 2.92 µM
  TGI: > 10 µM and 18.8 µM
A549 NSCLC
  GI50: 8.92 µM and 4.98 µM
  TGI: > 10 µM and 30.2 µM
MDA-MB-435
  GI50: 5.87 µM and 5.57 µM
  TGI: > 10 µM and 60.8 µM
COLO 205 colon
  GI50: 4.41 µM and 1.8 µM
  TGI: > 10 µM and 5.23 µM
NCI-H460 lung
  GI50: 3.8 µM and 5.2 µM
  TGI: > 10 µM and 23.9 µM
MCF7 breast
  GI50: 1.1 µM and 1.01 µM
  TGI: > 10 µM and 87.7 µM
HOP-62 NSCLC
  GI50: 8.58 µM
  TGI: > 10 µM
CAKI-1 renal
  GI50: 3.81 µM
  TGI: > 10 µM
IGROV1 ovarian
  GI50: 0.439 µM and 0.722 µM
  TGI: 2.89 µM and 5.47 µM
KM12 colon
  GI50: 5.98 µM and 9.53 µM
  TGI: > 10 µM and 61.4 µM
RPMI-8226 leukemia
  GI50: 3.23 µM and 3.84 µM
  TGI: > 10 µM and 31.4 µM
MOLT-4 leukemia
  GI50: 2.17 µM and 1.96 µM
  TGI: > 10 µM and 6.55 µM
BT-549 breast
  GI50: 1.6 µM and 1.42 µM
  TGI: > 10 µM and 15.2 µM
SN12C renal
  GI50: 4.09 µM and 6.47 µM
  TGI: > 10 µM and 43.4 µM
M14 melanoma
  GI50: > 10 µM and 11.8 µM
  TGI: > 10 µM and 30.9 µM
